Measured values taken from publication PMC9240925, “Mechanistic study of the solubilization effect of basic amino acids on a poorly water-soluble drug” (RSC Advances, 2022).
In brackets after ≈: the same amount, converted by molar mass. Where two headings read alike, the source gives them in different places.

Experiments:
[1] = Differential scanning calorimetry, glass transition; type: physicochemical; conditions: for Tg, Gordon–Taylor (glass transition temperature): calculated by Gordon–Taylor equation with crystalline densities
Procedure: DSC was performed using a Q20 instrument V24.7 build 119 thermal analysis system with an intercooler system (Elstree, United Kingdom). The DSC system was calibrated and validated using indium (average melting temperature 156.36 ± 0.03 °C and enthalpy 29.81 ± 0.05 J g^−1). Powder samples of 1 to 5 mg were weighed in T-zero aluminum pans with T-zero lids (TA Instruments – A Division of Waters Ltd, Centennial Avenue, Elstree, Hertfordshire, United Kingdom). […] All results were analyzed using the TRIOS software for the phases transitions to determine the glass transition temperature (Tg) and melting point (Tm).
Indomethacin (as received) was analyzed in two heating cycles to produce an amorphous form. The first cycle was to measure the Tm of the crystalline form and the second cycle was for obtaining the Tg of amorphous indomethacin. The freeze-dried complexes and crystalline arginine, histidine and lysine were undergone one heating cycle to determine the Tg or Tm. The Tg described by Gordon–Taylor[39] was determined for drug–basic amino acids binary systems using the given equations below.
The Gordon–Taylor equation from composite glasses:3 [drawing 3]
T g(mix) is the glass transition temperature of a binary mixture, w1 and w2 are the weight fraction and Tg1 and Tg2 are the glass transitions temperature of individual compound in the mixture, K is typically considered an empirical constant:4 [drawing 4] where p1 and p2 are the powder densities of the single amorphous components. The crystalline densities of compounds (pIND = 1.379 g cm^−3pARG = 1.325 g cm^−3, pHIS = 1.412 g cm^−3 and pLYS = 1.237 g cm^−3) were used as approximation because small differences in density were reported between crystalline and amorphous form of small molecular compound.[9]

[2] = cited from earlier work
[3] = design: method as in as printed in each cell: ref 60, 62, 63, 10, 64; conditions: cited from earlier work
[4] = design: method as in ref 34 = [34]; Robert C. W. , Handbook of Chemistry and Physics , ed. R. C. Weast , CRC Press , Ohio , 55th edn, 1975; conditions: at 25 °C; cited from earlier work
[5] = Physical and chemical stability of indomethacin in solution (UV-Vis); type: physicochemical
Procedure: Spectra were collected using the UV Lambda software over the wavelength range of 400 nm–200 nm. The same solvent without the drug/amino acid was used as the reference. Samples were analyzed at identical conditions: slit width 1 nm, bandwidth 0.5 nm, pair cuvette cells 1 cm.
The results were recorded for samples stored over a week at ambient temperature (25 ± 1 °C). Chemical stability was confirmed by measuring the UV absorbance at 320 nm.

[6] = design: method as in ref 34 = [34]; Robert C. W. , Handbook of Chemistry and Physics , ed. R. C. Weast , CRC Press , Ohio , 55th edn, 1975; conditions: cited from earlier work
[7] = design: method as in ref 42 = [42]; Archontaki H. A. Kinetic Study on the Degradation of lndomethacin in Alkaline Aqueous Solutions by Derivative Ultraviolet Spectrophotometry Analyst 1995 120 1 8; conditions: pH = 13; cited from earlier work
[8] = pH-solubility study, shake flask method; type: physicochemical; conditions: mean ± SD n = 3
Procedure: The samples were then filtered using a membrane filter (syringe filter, 0.45 μm sterile). The filtered solutions were diluted within the range of calibration curves and analyzed spectrophotometrically at 260 nm.

[9] = Hydrotropic solubilization in amino acid solutions at controlled pH; type: physicochemical
Procedure: The pH of the solutions was adjusted by adding 0.1 M hydrochloric acid and monitored with a pH meter (OXOID limited, England). Excess indomethacin was then added to the amino acid solutions. The suspension was stirred with a magnetic stirrer for 24 hours at 30 ± 2 °C or 45 ± 2 °C until it is equilibrated followed by adjusting the pH again. The samples were then filtered via a membrane filter (syringe filter, 0.45 μm sterile).

[10] = Phase solubility diagrams of indomethacin in basic amino acid solutions and complexation efficiency; type: physicochemical; conditions: 30 °C
Procedure: After equilibration, the mixtures were centrifuged at 3750 rpm for 10 minutes (Beckman Coulter Allegra X-12 Series). […] The supernatant was filtered via a membrane filter (syringe filter, 0.45 μm sterile). The solutions were then diluted within the calibration curve range and analyzed spectrophotometrically at 260 nm. The precipitates (solid phase) were filtered again using filter paper (Whatman Grade 3). The solid phase was dried in an oven at 70 °C for 30 minutes, then examined using FTIR.
The complexation or solubilizing efficiency (CE)[36] was calculated from the slope of the linear drug–amino acid phase solubility (PS) diagram using the following eqn (1):1 [drawing 1] where K1:1 indicates to the stability constant, which is used to compare the affinity of drug to different amino acids. S0 refers to the intrinsic solubility, [drug–amino acid complex] is the concentration of dissolved drug–amino acid complex, [amino acid] is the concentration of dissolved free amino acid and slope is the slope of the phase solubility diagram.

[11] = Drug content and chemical stability of freeze-dried mixtures by UV-Vis; type: physicochemical; conditions: with all amino acids, peak position at 320 nm
Procedure: The resulting filtrates were frozen for 24 hours at −80 °C and then freeze-dried for 48 hours (LTE Scientific Lyotrap Freeze Dryer, Great Britain, Greenfield, Oldham) with the system temperature of −51 ± 2 °C, pressure of around 0.1 mbar and the vacuum pump operated at a flow rate of 21 m^3 h^−1. The freeze-dried samples were then transferred into a plastic vacuum desiccator containing phosphorous pentoxide desiccant (P2O5) at ambient temperature (22 ± 2 °C). Indomethacin–sodium salt was also produced for comparison purposes.
The freeze-dried samples were prepared by dissolving 10 mg freeze-dried materials in water in a 10 mL volumetric flask. The solutions were then diluted to concentrations that fall within the calibration curve and analyzed at 320 nm. The percentage drug content[37] was calculated by eqn (2)2 [drawing 2]

## N=C(N)NCCC[C@H](N)C(=O)O [Arginine, L-arginine]
[1]
  Tg, Gordon–Taylor (glass transition temperature): 55.0 °C

## NCC(=O)O [Glycine, glycine]
[2]
  pI (isoelectric point): 5.97

## N[C@@H](Cc1c[nH]cn1)C(=O)O [Histidine, L-histidine]
[3]
  Tg, lit. (glass transition temperature): 37.0 (ref. [63]) °C
[4]
  Water solubility: 4.20 g/100 mL
[2]
  pI (isoelectric point): 7.59
[1]
  Tg, Gordon–Taylor (glass transition temperature): 37.0 °C

## COc1ccc2c(c1)c(CC(=O)O)c(C)n2C(=O)c1ccc(Cl)cc1 [Indomethacin]
[3]
  Tg, lit. (glass transition temperature): 42.0 (ref. [60]) °C
[5]; arginine solution, pH 10.3
  Stability in solution (UV absorbance): gradually degraded after 24 hours
[5]; basic amino acid solutions, pH 6.3 to 10.3, duration of experiment less than 24 hours
  Stability in solution (UV absorbance): remains stable
[5]; histidine solution, pH 7.5
  Stability in solution (UV absorbance): stable over a week
[5]; lysine concentration between 27 and 37 mM (supersaturated, partial precipitation)
  Stability of indomethacin concentration in lysine aqueous solution on storage: dropped after 1 day of storage
[5]; lysine concentrations below 27 mM, examined for ten days
  Stability of indomethacin concentration in lysine aqueous solution on storage: appears stable
[5]; lysine solution, pH 10
  Stability in solution (UV absorbance): gradually degraded after 24 hours
[6]
  log p (partition coefficient): 4.05
[7]
  Stability in solution of high pH: rapidly hydrolyzed
[4]
  Water solubility: 0.009 g/100 mL
[8]; 25 °C, simulated gastric fluid, thermodynamic from solid, 25 ± 2 °C, water pH 1.2, unionized form, read-out: Intrinsic solubility (S0)
  solubility at 24 h: 0.95 µM (≈ 0.34 µg/mL)
[8]; 25 ± 2 °C, water pH 6.3, ionized and unionized forms, read-out: Aqueous solubility (S)
  solubility at 24 h: 64.2 µM (≈ 23 µg/mL)
[8]; 30 °C, aqueous buffer, thermodynamic from solid, 30 ± 2 °C, water pH 6.3, ionized and unionized forms, read-out: Aqueous solubility (S)
  solubility at 24 h: 81.6 µM (≈ 29.2 µg/mL)
[8]; 30 ± 2 °C, water pH 1.2, unionized form, read-out: Intrinsic solubility (S0)
  solubility at 24 h: 1.18 µM (≈ 0.422 µg/mL)
[9]; 0.35 M histidine solution, pH 7
  Solubility improvement of ionized indomethacin compared to aqueous solubility at same pH without histidine: ~8 fold
[9]; 1.5 M isoleucine solution, pH 1.2, 30 °C
  Solubility improvement of unionized indomethacin compared to intrinsic solubility in water: ~25 fold
[9]; 1.6 M arginine solution, pH 1.2, 30 °C
  Solubility improvement of unionized indomethacin compared to intrinsic solubility in water: ~11 fold
[9]; glycine solution, same concentration, pH 1.2, 30 °C
  Solubility change of unionized indomethacin compared to intrinsic solubility in water: did not change
[10]; indomethacin in arginine solution above 250 mM
  Phase solubility diagram type (Higuchi and Connors): AN-type
[10]; indomethacin in arginine solution below 250 mM
  Phase solubility diagram type (Higuchi and Connors): AL-type
[10]; indomethacin in lysine solutions
  Phase solubility diagram type (Higuchi and Connors): Bs-type
[11]
  Chemical stability after freeze-drying: chemically stable
[1]; DSC 5 °C/min, n = 3, IND melt quench, mixtures freeze-dried
  Tg, exp. (glass transition temperature): 42.1 ± 0.5 °C
[1]
  Tg, Gordon–Taylor (glass transition temperature): 42.1 °C

## CC[C@H](C)[C@H](N)C(=O)O [Isoleucine, L-isoleucine]
[6]
  log p (partition coefficient): −1.70
[4]
  Water solubility: 0.41 g/100 mL
[2]
  pI (isoelectric point): 6.04

## NCCCC[C@H](N)C(=O)O [Lysine, L-lysine]
[3]
  Tg, lit. (glass transition temperature): 68.0 (ref. [63]) °C
[4]
  Water solubility: Very soluble
[2]
  pI (isoelectric point): 9.47
[1]
  Tg, Gordon–Taylor (glass transition temperature): 68.0 °C
